Laboratory results as given in patent publication US20170143661A1 (priority 2015, published 2017).

How the values were obtained:
Parameters in all cases: species or system broiler birds
Details in all cases: in vivo
[1] = system: Newcastle disease virus, NDV
Interferon-γ (IFN-γ) = system: Interferon-γ (IFN-γ)
[2] = system: Newcastle disease virus, NDV; remark: listed apart in the source
[3] = system: Newcastle disease virus, NDV; remark: listed apart in the source
[4] = system: Newcastle disease virus, NDV; remark: listed apart in the source
Interleukin-6 (IL-6) = system: Interleukin-6 (IL-6)

## CCC(=O)[O-].CCC(=O)[O-].CCC(=O)[O-].[Cr+3] [chromium propionate]
[1]
  daily mortality percentages: lower
  mortality by day 15 post-challenge: 100%
  onset of mortality: delayed
Interferon-γ (IFN-γ)
  serum Interferon-γ (IFN-γ) levels: Significantly higher
[2]
  mean viral titer in different organs: lower as compared to the control
[3]
  serum antibody titers (HI): enhanced significantly
[4]
  serum antibody titers (ELISA): enhanced significantly
Interleukin-6 (IL-6)
  post-challenge responses (serum cytokine): increasing trend
  serum Interleukin-6 (IL-6) levels: Significantly higher
